In ChEMBL document CHEMBL1201862, “PubChem BioAssay data set” (2004):
The source made the active and inactive calls.

Legend:
[1] = blockers of HIV-1 ZM109 envelope-driven cell-cell fusion – HeLa effector, CEM target cells, luciferase, cherry-pick, dose response (AID 652058); format: functional, cell-based;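 also: luciferase signal from HIV-1 Env mediated cell-cell fusion of effector and target cells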
[2] = HIV-1 AD8 envelope cell-cell fusion blockers – cherry-pick, dose response (AID 652062); format: functional, cell-based;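 also: luciferase signal from cell-cell fusion driven by HIV-1 clade B AD8 Env; potency is for inhibitors of fusion seen as a drop in luminescence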
[3] = blockers of HIV-1 envelope-mediated cell-cell fusion – cherry-pick, dose response (AID 652057); format: functional, cell-based
[4] = intracellular Trypanosoma cruzi inhibitors in host cells – cell-based, plate reader, cherry-pick samples, set 3, dose response (AID 651818); format: functional;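 also: compounds incubated with infected cells for about four days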
[5] = target: T1, Leucine aminopeptidase (Plasmodium falciparum 3D7, UniProt Q8IL11); test: P. falciparum M17LAP inhibitors, primary screen, biochemical, fluorogenic H-Leu-NHMec substrate, 1536-well (AID 1619); format: functional
T1 sequence (Q8IL11 whole entry): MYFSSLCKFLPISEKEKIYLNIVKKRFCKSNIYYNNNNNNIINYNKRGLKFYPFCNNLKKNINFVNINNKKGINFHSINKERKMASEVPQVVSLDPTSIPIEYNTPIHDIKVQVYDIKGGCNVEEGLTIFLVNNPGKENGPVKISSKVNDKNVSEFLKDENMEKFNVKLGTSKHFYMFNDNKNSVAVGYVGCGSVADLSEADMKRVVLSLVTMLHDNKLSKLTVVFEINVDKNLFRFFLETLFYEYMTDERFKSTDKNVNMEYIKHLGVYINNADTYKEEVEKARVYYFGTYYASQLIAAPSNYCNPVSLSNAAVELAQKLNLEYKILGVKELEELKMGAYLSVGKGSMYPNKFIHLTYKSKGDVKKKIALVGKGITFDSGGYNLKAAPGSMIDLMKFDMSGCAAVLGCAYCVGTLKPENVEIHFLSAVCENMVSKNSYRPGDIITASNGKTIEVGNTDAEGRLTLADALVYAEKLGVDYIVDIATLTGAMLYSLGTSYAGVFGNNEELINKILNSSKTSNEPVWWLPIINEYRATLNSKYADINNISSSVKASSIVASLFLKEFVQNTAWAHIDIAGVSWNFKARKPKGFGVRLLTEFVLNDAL

[6] = target: 26S proteasome non-ATPase regulatory subunit 14 (Homo sapiens, UniProt O00487); test: inhibition of proteasome subunit RPN11 – biochemical, fluorescence polarization, uHTS hits, confirmation (AID 602368); format: functional
[7] = target: Prothrombin (Bos taurus, UniProt P00735); test: thrombin protease inhibitors – biochemical, fluorescence polarization, uHTS hits, dose response (AID 602369); format: functional
[8] = target: 72 kDa type IV collagenase (Homo sapiens, UniProt P08253); test: Dose Response validation of uHTS RPN11 inhibitor hits using a MMP-2 Fluorescence assay.; format: functional
[9] = target: Beta-galactosidase (Escherichia coli, UniProt Q8VNN2); test: Dose response counterscreen for EBI2 assay utilizing the enzyme, b-galactosidase.; format: functional
[10] = target: Induced myeloid leukemia cell differentiation protein Mcl-1 (Homo sapiens, UniProt Q07820); format: functional
[11] = target: Large T antigen (Simian virus 40, UniProt P03070); format: functional, Betapolyomavirus macacae;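 also: Confirmatory-stage PubChem screen for compounds that inhibit SV40 T antigen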
[12] = target: T2, Polyadenylate-binding protein 1 (Homo sapiens, UniProt P11940); test: MLLE domain peptide-binding blockers, IC50 – biochemical, fluorescence polarization, FITC-PAM2 peptide, dose response (AID 602259); format: functional; conditions: read-out: IC50_Mean
[13] = target: T2, Polyadenylate-binding protein 1; test: MLLE binding blockers, Cy5 peptide tracer – biochemical, fluorescence polarization, Cy5-PAM2 peptide, secondary, miRNA deadenylation inhibitor project, dose response (AID 602260); format: functional; conditions: read-out: IC50_Mean
[14] = microbe, parasite or virus in culture; format: functional; conditions: Mycobacterium tuberculosis
[15] = target: T3, High affinity choline transporter 1 (Homo sapiens, UniProt Q9GZV3); test: human choline transporter blockers, potency – cell-based, 5-point CRC, membrane potential dye, dose response (AID 504840); format: functional
T3 sequence (Q9GZV3 whole entry): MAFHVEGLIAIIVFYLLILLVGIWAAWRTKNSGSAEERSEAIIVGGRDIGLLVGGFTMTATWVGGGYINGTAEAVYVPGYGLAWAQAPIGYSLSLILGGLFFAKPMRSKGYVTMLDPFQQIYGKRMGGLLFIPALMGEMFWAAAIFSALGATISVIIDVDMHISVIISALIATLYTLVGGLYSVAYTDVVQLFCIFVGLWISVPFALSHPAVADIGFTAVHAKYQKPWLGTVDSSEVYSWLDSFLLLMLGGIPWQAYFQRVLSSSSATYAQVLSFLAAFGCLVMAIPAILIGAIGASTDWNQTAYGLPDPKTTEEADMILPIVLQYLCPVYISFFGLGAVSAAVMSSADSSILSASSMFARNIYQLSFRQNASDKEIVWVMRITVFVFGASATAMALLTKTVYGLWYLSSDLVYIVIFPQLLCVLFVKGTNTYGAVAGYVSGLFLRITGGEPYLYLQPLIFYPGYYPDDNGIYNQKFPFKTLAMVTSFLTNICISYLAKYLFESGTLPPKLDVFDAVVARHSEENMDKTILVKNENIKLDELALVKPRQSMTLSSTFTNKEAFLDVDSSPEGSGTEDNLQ

[16] = target: T4, Probable nicotinate-nucleotide adenylyltransferase (Staphylococcus aureus (strain N315), UniProt P65502); format: functional, Staphylococcus aureus subsp. aureus N315;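 as to IC50 Mean: confirmatory dose-response retesting of NadD inhibitor hits first found in an ultra-high-throughput screen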
[17] = target: T4, Probable nicotinate-nucleotide adenylyltransferase; format: functional, Staphylococcus aureus subsp. aureus N315; conditions: read-out: IC50_Mean
[18] = viability loss in HeLa cells – cytotoxicity control for MgcRacGAP inhibitor project, dose response (AID 624300); format: functional
[19] = target: Nonstructural protein 1 (Influenza A virus, UniProt Q194T2); format: functional, Influenza A virus (A/California/07/2009(H1N1))
[20] = target: T5, DNA repair protein RAD52 homolog (Homo sapiens, UniProt P43351); format: functional, biochemical
T5 sequence (P43351 whole entry): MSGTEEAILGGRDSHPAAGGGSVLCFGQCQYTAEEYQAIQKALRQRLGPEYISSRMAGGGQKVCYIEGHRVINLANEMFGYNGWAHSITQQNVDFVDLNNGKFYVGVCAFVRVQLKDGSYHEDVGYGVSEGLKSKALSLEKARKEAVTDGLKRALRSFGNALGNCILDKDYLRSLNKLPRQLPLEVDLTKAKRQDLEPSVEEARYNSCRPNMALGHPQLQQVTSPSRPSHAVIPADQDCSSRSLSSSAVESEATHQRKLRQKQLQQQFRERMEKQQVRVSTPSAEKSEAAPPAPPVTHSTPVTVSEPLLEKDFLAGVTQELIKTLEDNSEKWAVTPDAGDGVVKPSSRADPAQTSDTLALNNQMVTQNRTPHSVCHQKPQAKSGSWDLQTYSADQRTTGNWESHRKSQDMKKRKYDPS

[21] = target: T6, Rac GTPase-activating protein 1 (Homo sapiens, UniProt Q9H0H5); test: blockers of MgcRacGAP-driven Rac1 GTP hydrolysis – biochemical, ADP Hunter fluorescence, primary and confirmatory, confirmation (AID 624330); format: functional
T6 sequence (Q9H0H5 whole entry): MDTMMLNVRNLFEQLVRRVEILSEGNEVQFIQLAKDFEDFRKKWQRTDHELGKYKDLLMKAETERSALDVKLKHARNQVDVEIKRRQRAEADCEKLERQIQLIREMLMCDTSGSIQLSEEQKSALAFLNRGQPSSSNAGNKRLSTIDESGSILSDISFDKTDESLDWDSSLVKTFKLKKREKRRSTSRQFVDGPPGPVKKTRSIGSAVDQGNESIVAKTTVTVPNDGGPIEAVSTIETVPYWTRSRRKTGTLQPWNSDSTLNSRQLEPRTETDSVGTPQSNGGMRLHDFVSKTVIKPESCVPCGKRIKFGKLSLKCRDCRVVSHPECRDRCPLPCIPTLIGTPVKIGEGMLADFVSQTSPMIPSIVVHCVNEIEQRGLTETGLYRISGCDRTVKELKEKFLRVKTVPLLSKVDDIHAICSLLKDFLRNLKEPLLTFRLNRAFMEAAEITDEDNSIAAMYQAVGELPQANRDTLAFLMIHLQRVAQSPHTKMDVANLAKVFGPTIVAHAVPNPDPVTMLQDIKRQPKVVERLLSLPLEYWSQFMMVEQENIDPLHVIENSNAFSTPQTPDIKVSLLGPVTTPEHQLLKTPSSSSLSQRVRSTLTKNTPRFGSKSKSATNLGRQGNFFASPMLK

[22] = target: FAD-linked sulfhydryl oxidase ALR (Homo sapiens, UniProt P55789); test: ALR-catalysed DTT oxidation blockers – biochemical, H2O2 detection, luminescence, cherry-pick, dose response (AID 493248)
[23] = target: T7, Small ubiquitin-related modifier 1 (Homo sapiens, UniProt P63165); test: SUMO1 protein interaction blockers, potency – biochemical, fluorescence polarization, uHTS hits, dose response (AID 624382); format: functional; conditions: read-out: IC50_Mean
[24] = target: T7, Small ubiquitin-related modifier 1; test: SUMO1 protein-protein binding blockers, potency – biochemical, FRET, dose response (AID 624383); format: functional; conditions: read-out: IC50_Mean
[25] = target: Paired box protein Pax-8 (Homo sapiens, UniProt Q06710); test: PAX8 transcriptional activity inhibition in RMG-I – RMG-I cells, luciferase, cherry-pick, dose response (AID 687027); format: functional, cell-based;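 also: luciferase reporter driven by Pax8 target thyroperoxidase promoter measured by SteadyGlo luminescence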
Paired box protein Pax-8, sequence (Q06710 whole entry): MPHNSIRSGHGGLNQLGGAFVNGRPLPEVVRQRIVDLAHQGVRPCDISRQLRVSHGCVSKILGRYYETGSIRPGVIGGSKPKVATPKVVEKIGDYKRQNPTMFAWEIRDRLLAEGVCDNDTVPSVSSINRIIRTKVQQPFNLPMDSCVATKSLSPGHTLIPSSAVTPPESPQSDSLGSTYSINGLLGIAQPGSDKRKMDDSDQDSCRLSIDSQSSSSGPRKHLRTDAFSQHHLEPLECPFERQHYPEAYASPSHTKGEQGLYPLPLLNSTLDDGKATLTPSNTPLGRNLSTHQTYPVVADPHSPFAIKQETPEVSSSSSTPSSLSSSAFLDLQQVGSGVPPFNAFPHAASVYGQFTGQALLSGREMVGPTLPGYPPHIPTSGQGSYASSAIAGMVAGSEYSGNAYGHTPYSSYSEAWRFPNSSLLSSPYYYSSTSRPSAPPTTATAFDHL

Induced myeloid leukemia cell differentiation protein Mcl-1, sequence (Q07820 whole entry): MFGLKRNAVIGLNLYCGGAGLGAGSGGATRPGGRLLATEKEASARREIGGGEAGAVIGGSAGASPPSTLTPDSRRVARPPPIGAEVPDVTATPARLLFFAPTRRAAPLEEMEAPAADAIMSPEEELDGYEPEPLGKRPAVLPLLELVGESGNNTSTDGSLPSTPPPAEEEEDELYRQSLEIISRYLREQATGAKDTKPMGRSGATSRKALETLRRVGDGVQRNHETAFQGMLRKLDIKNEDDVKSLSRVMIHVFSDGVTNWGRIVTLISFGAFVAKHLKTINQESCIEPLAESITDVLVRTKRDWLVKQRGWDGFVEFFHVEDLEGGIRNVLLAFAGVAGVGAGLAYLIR
T7 sequence (P63165 whole entry): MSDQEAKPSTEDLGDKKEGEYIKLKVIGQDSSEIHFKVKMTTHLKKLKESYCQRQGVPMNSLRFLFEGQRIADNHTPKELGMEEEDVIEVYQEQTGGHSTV
Beta-galactosidase, sequence (Q8VNN2 whole entry): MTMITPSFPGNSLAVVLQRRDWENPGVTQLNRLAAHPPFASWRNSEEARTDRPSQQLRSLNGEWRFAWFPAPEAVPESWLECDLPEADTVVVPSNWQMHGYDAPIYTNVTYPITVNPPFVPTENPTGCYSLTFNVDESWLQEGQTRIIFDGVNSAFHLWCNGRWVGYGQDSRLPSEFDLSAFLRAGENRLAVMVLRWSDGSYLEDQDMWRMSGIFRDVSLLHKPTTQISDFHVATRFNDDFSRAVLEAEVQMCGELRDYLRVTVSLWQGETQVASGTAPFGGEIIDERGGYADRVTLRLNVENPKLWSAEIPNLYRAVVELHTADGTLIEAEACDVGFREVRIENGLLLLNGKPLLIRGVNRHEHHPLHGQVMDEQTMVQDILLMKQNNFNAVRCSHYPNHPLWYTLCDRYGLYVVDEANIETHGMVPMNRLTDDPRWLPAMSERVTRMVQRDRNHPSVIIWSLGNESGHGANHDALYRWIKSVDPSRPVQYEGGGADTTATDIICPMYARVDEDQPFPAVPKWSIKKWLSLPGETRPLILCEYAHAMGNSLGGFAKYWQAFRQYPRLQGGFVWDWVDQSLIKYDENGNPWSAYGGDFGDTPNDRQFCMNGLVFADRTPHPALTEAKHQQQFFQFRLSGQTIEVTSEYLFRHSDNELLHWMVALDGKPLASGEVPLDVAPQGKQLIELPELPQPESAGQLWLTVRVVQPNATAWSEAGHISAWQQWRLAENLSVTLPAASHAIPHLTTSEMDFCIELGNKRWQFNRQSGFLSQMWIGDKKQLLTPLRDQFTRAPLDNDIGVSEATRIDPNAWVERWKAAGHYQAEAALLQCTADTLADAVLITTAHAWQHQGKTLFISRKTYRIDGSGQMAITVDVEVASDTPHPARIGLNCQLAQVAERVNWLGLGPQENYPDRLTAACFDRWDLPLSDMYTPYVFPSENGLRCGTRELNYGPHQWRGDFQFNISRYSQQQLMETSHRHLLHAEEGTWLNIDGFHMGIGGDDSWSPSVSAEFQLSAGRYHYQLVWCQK
T2 sequence (P11940 whole entry, the tested form may be a part): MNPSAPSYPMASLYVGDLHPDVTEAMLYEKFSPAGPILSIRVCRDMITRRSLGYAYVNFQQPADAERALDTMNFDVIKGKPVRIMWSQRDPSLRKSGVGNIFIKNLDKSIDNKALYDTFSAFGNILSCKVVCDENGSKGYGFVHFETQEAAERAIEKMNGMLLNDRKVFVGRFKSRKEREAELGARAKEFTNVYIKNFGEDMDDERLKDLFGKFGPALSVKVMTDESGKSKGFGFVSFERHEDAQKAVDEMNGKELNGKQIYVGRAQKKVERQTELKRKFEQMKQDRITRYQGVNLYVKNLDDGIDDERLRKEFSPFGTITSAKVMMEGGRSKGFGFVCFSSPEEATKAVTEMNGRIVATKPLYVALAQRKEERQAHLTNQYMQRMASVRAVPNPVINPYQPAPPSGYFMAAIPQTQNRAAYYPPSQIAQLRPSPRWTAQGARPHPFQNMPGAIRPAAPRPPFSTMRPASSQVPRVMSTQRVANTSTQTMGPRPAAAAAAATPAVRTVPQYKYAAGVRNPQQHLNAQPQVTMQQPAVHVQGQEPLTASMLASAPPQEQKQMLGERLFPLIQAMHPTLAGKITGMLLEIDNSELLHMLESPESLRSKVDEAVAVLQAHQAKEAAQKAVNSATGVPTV
Large T antigen, sequence (P03070 whole entry, the tested form may be a part): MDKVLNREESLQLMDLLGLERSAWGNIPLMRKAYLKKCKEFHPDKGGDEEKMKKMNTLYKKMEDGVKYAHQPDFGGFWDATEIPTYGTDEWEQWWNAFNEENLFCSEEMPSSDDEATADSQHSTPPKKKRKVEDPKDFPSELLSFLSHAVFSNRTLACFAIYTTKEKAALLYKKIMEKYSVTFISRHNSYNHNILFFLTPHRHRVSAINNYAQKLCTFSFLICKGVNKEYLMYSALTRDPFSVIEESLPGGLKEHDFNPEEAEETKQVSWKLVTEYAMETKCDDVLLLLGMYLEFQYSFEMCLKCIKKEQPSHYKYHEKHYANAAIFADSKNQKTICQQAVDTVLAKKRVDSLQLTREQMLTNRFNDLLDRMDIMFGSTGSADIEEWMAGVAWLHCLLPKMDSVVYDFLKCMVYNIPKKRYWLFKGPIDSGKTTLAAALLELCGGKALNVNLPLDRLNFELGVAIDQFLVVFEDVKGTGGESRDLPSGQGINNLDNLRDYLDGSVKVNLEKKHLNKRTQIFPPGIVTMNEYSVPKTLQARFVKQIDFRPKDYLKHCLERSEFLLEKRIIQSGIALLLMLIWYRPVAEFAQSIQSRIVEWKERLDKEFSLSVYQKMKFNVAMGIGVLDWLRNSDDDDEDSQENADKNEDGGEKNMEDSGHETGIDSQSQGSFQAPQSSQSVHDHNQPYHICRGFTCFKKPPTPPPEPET
26S proteasome non-ATPase regulatory subunit 14, sequence (O00487 whole entry): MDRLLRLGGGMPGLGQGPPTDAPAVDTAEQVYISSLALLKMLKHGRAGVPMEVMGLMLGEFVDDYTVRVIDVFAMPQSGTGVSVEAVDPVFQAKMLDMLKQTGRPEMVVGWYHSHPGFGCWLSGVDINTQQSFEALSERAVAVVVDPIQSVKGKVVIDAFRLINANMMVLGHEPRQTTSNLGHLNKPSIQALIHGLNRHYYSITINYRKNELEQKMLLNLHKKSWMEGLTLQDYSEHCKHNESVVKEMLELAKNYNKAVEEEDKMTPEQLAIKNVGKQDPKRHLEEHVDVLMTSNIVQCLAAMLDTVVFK
T4 sequence (P65502 whole entry): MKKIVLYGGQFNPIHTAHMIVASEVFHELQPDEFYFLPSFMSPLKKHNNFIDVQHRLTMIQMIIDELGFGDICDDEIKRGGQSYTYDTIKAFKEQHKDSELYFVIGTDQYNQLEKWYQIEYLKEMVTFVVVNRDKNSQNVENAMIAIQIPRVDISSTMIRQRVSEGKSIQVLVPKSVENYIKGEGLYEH
72 kDa type IV collagenase, sequence (P08253 whole entry): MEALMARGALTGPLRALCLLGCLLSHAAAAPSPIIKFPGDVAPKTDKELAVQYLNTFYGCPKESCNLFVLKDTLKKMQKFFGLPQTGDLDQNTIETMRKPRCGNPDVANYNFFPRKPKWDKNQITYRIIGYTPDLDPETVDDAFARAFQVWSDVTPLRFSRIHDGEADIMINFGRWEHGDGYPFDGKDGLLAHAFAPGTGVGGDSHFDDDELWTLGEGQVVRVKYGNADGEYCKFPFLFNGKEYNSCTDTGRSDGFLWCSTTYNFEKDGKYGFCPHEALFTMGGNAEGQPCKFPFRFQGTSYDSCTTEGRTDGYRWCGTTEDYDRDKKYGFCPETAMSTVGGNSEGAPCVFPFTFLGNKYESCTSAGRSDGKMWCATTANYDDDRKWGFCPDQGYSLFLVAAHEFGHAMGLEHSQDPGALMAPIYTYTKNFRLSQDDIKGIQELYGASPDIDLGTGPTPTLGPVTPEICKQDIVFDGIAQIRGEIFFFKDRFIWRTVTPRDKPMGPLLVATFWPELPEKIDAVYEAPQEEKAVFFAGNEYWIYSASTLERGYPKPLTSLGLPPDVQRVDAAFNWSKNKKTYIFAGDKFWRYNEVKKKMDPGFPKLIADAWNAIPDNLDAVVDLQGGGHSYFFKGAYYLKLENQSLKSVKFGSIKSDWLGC
FAD-linked sulfhydryl oxidase ALR, sequence (P55789 whole entry): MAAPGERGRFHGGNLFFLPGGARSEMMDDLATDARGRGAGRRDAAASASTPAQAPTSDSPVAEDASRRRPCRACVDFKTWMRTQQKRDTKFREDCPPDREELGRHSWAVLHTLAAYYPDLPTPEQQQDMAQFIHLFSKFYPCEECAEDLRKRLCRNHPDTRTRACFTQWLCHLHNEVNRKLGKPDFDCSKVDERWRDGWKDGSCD
Nonstructural protein 1, sequence (Q194T2 whole entry): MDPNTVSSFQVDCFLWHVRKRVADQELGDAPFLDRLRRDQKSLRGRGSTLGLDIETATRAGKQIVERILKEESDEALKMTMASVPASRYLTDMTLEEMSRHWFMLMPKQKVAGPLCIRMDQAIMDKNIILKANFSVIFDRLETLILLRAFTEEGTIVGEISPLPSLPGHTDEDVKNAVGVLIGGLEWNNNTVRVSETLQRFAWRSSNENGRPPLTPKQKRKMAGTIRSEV

COc1ccccc1CNC(=O)C[C@H]1C[C@@H]2c3cc(NS(=O)(=O)c4ccc(F)cc4)ccc3O[C@@H]2[C@H](CO)O1
AC50 [1]: < 0.26 µM (active) | AC50 [2]: < 0.26 µM (active) | AC50 [3]: < 0.26 µM (active)

Cc1ccc(S(=O)(=O)Nc2ccc3c(c2)C(=O)N([C@H](C)CO)C[C@H](C)[C@H](CN(C)S(=O)(=O)c2ccc(Cl)cc2)O3)cc1
AC50 [4]: 4.35 µM (active)

CCSc1nnc(NC(=O)C2CC=CCC2C(=O)O)s1 (stereo unspecified)
IC50 [5]: 19.9 µM (active)

C[C@@H]1CN([C@H](C)CO)C(=O)c2cccc(NC(=O)CCCCCC(=O)Nc3ccccc3N)c2O[C@@H]1CN(C)Cc1ccc(C(F)(F)F)cc1
AC50 [4]: 2.34 µM (active)

NC(=O)CC(NC(=O)c1ccc(Br)cc1)c1ccc(NC2CCCCCC2)c([N+](=O)[O-])c1 (stereo unspecified)
IC50 [6]: 31.6 µM (active) | IC50 [7]: 88.5 µM (active) | IC50 [8]: > 100 µM (inactive)

C[C@@H]1CN([C@@H](C)CO)S(=O)(=O)c2ccc(C3=CCCCC3)cc2O[C@@H]1CN(C)S(=O)(=O)c1ccc(F)cc1
AC50 [1]: 1.35 µM (active) | AC50 [2]: 3.53 µM (active) | AC50 [3]: 3.34 µM (active)

CC(=O)N1CCOc2ccc(S(=O)(=O)N3CCC(C(=O)NCc4ccc(Cl)cc4)CC3)cc21
IC50 [9]: > 80 µM (inactive)

COc1ccc(C=C2SC(=S)N(CCCC(=O)Nc3ccc(C(=O)O)c(O)c3)C2=O)cc1OC
IC50 [6]: 26.2 µM (active) | IC50 [7]: 35.3 µM (active) | IC50 [8]: > 100 µM (inactive)

Cc1cc(C)c(S(=O)(=O)N2CCN(C(=O)c3ccc(-n4nc(C)c(Cl)c4C)cc3)CC2)c(C)c1
IC50 [9]: > 80 µM (inactive)

COc1ccc(/C=C2/C(=O)NC(=S)N(C3CC3)C2=O)cc1CN1C(=O)c2ccccc2C1=O
IC50 [10]: 5.54 µM (active) | IC50 [11]: 48.5 µM (active)

COc1ccc(NC(=O)CSc2nc(O)c(Cc3ccccc3)c(=O)[nH]2)cc1
IC50 [12]: > 66 µM (inactive) | IC50 [13]: > 66 µM (inactive) | IC50 [5]: 10.2 µM (active)

O=C(/C=C/c1ccc(Cl)cc1)N1CCN(c2ccc(Cl)cc2[N+](=O)[O-])CC1
CC50 [14]: > 40 µM (active) | IC50 [9]: > 80 µM (inactive)

CC(C)(C)NC(=O)NC(=O)CN1CCC(Cc2ccccc2)CC1
IC50 [15]: 12 µM (active)

C[C@@H]1CN([C@@H](C)CO)C(=O)Cc2cc(NC(=O)Nc3ccc(C(F)(F)F)cc3)ccc2O[C@@H]1CN(C)S(=O)(=O)c1ccc(F)cc1
AC50 [4]: 6.4 µM (active)

O=c1[nH][nH]c(=O)c2cc(N3CCCC3)ccc12
IC50 [5]: 70.7 µM (active)

N#CC1=C(S)N=C(N)C(c2nc(-c3ccccc3)cs2)C12CCCCC2 (stereo unspecified)
IC50 [16]: 10.4 µM (active) | IC50 [17]: 23.2 µM (active)

C=CCN(CC=C)S(=O)(=O)c1ccc2nc(NC(=O)C(C)C)sc2c1
IC50 [15]: 13.8 µM (active)

N#C/C(=C\c1ccccc1)C(=O)Nc1cc(S(=O)(=O)N2CCOCC2)ccc1N1CCCC1
IC50 [9]: > 80 µM (inactive)

Cc1ccc(NCCN(C)C)c2c(=O)c3cc(O)ccc3sc12
CC50 [18]: 27.7 µM (active) | IC50 [19]: 21.7 µM (active) | AC50 [20]: 0.32 µM (active) | IC50 [21]: 24 µM (active)

C[C@H]1CN([C@@H](C)CO)S(=O)(=O)c2ccc(-c3cccc(C#N)c3)cc2O[C@H]1CN(C)Cc1cccc(F)c1
AC50 [1]: 43.1 µM (active) | AC50 [3]: 45.7 µM (active)

COc1cc(C(=O)Nc2ccc(N(C)C)cc2)cc(OC)c1OC
IC50 [10]: 4.78 µM (not active) | IC50 [11]: 6.34 µM (active) | AC50 [22]: 1.31 µM (active)

Cc1ccc(Oc2ncc(-c3ccc(Cl)cc3)cn2)cc1
IC50 [9]: > 80 µM (inactive)

O=c1c(-c2c(O)cc(O)c3c(=O)cc(-c4ccc(O)cc4)oc23)c(-c2ccc(O)cc2)oc2cc(O)cc(O)c12
IC50 [10]: 2.73 µM (not active) | IC50 [23]: > 66.6 µM (inactive) | IC50 [24]: 9.2 µM (active)

Cc1cc(C)c(NC(=O)CCCCCNC2CCCCC2)c(C)c1
IC50 [15]: 12.6 µM (active)

CCOC(=O)/C=C/C(=O)Nc1cc(S(=O)(=O)Nc2ccc(OC)cc2)ccc1N1CCOCC1
AC50 [25]: 5.42 µM (active) | IC50 [9]: > 80 µM (inactive)

CC1CCCC(C)N1CCCNC(=O)CN1C(=O)c2cccnc2Oc2ccc(Cl)cc21 (stereo unspecified)
IC50 [15]: 13.8 µM (active)

Cc1ccc(S(=O)(=O)CCC(=O)OC(C)C(=O)N2CCc3ccccc32)cc1 (stereo unspecified)
IC50 [15]: 12.6 µM (active)

NC(=O)c1ccc2c(=O)n3c(-c4cc(Cl)c(N)c(Cl)c4)csc3nc2c1
IC50 [23]: > 66.6 µM (inactive) | IC50 [24]: 13.4 µM (active)
